Bridge positions count the residues as written; N and C are the ends. Square brackets hold non-standard residues; d marks the D form. Peptide text beside a SMILES is read from it. * marks the point of attachment. ξ: configuration not given here. αGalNAc = CC(=O)N[C@@H]1[C@@H](O)[C@@H](O)[C@@H](CO)O[C@@H]1*; 5FAM = O=C1OC2(c3ccc(O)cc3Oc3cc(O)ccc32)c2ccc(C(=O)*)cc21; ξTetrahydrofuran2carbonyl = O=C(C1CCCO1)*; Cha = N[C@@H](CC1CCCCC1)C(=O)O
Biological target: DDE (fibrin-derived polypeptide) (Homo sapiens, UniProt P02671+P02675+P02679)
Sequence (P02671 124-216): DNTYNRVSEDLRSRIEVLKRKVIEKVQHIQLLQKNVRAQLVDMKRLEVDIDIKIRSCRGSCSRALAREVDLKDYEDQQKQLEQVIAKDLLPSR
Sequence (P02675 164-491): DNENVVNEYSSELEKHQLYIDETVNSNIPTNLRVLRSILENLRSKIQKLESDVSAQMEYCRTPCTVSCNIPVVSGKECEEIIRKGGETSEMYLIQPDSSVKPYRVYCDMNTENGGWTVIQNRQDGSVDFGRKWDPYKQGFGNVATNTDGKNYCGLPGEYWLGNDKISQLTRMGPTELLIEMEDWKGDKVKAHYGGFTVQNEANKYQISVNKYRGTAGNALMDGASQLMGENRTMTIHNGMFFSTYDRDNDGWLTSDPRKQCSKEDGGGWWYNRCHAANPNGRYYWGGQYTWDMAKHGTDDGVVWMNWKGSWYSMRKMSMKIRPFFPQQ
Sequence (P02679 114-432): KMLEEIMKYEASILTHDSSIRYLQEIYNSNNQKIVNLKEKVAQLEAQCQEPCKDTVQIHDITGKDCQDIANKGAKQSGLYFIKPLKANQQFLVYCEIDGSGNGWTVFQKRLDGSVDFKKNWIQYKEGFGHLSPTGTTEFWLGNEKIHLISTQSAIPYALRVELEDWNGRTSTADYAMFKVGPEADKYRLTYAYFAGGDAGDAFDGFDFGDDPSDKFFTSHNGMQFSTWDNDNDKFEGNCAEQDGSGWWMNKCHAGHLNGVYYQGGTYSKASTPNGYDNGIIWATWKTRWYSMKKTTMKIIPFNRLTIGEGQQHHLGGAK
Sequence (P02671 36-97): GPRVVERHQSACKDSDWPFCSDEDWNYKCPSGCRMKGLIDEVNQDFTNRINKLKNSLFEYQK
Sequence (P02675 45-152): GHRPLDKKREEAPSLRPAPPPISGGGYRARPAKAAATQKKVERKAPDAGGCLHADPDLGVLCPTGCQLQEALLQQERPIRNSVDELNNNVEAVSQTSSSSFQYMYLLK
Sequence (P02679 27-88): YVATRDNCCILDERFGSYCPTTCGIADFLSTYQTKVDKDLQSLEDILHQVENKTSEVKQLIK
Test: Direct binding fluorescence polarization (FP) assay using 5-carboxyfluorescein labeled peptides
Conditions: 20 nM CF5-labeled peptide, serial dilutions of DDE, anisotropy read at 485 nm; read-out: KD (μM) Direct Binding (n = 2)
Description: Assay of Fibrin Binding Peptides by Direct Binding Fluorescence Polarization (FP) Procedure using 5-Carboxyfluoresein Labeled Peptides
Protocol • 1. Prepare 1 mL of 40 nM solution of 5-carboxyfluorescein-labeled peptide in HEPES dilution buffer (HDB) with 0.01% Tween. • HDB (10 mM HEPES, 150 mM […], 2 mM CaCl2) • 2. Dilute the 40 nM solution to obtain 1 ml of a 20 nM solution of the test 5-carboxyfluorescein-labeled peptide. • 3. Prepare a solution of DDE at a concentration that will be approximately 5-10 fold greater than the expected KD. For the described assay an 8 μM concentration of DDE was prepared. • 4. Mix equal volumes of the DDE solution with the 40 nM peptide solution. • 5. Prepare serial dilutions of DDE in a solution consisting of the binding buffer with 0.01% Tween20 and 20 nM of the 5-carboxyfluorescein-labeled peptide. • 6. Make dilutions as shown in the following table in a Labsystems 384-well microplate and mix by repeated aspiration and dispensing of the solution into the wells. • 7. Centrifuge the plate at 2000 RPM for 5 minutes to remove air pockets in the wells. • 8. Read in Tecan Polarion Plate Reader at 485 nm to obtain the anisotropy value.
The anisotropy (in mP—millipolarization units) vs the logarithm of the concentration (micromoles/liter) of the receptor concentration is graphed. The dissociation constant is obtained at the midpoint of the curve whose extrema are Afree and Abound where Afree is the anisotropy of the free peptide and Abound is the anisotropy of the fully bound peptide. The theory, methods of operation and mathematical analysis is described in, for example, the following reference: Fluorescence Polarization Technical Resource Guide Technical Resource Guide 4th Edn. Invitrogen Corporation•501 Charmany Drive•Madison, Wis. 53719 USA. Particularly, the mathematical analysis of the data and obtaining binding constants is described in Chapter 8: Analysis of FP Binding Data pp 8-2-8-7.

Structure (SMILES)	Kd [µM]
CC(=O)N[C@@H](CCCNC(=N)N)C(=O)N[C@@H](Cc1c[nH]c2ccccc12)C(=O)N[C@@H](CCC(N)=O)C(=O)N1CCC[C@H]1C(=O)N[C@H]1CSSC[C@@H](C(=O)N[C@@H](Cc2c[nH]c3ccccc23)C(=O)N[C@@H](CC(=O)O)C(=O)N2CCC[C@H]2C(=O)NCC(=O)NCC(=O)NCC(=O)N[C@@H](CCCCNC(=O)c2ccc3c(c2)C(=O)OC32c3ccc(O)cc3Oc3cc(O)ccc32)C(N)=O)NC(=O)[C@H](Cc2ccccc2)NC(=O)[C@H]([C@@H](C)O)NC(=O)[C@H](Cc2c[nH]c3ccccc23)NC(=O)[C@H](CO)NC(=O)[C@H](CCC(=O)O)NC(=O)[C@H](C)NC(=O)[C@@H]2CCCN2C1=O [Seq049-CF5] (Ac-RWQPCPAESWTFCWDPGGGK(5FAM)-NH2; disulfide 5-13)	0.21
C[C@@H]1NC(=O)[C@@H]2CCCN2C(=O)[C@@H](NC(=O)[C@@H]2CCCN2C(=O)[C@H](CCC(N)=O)NC(=O)[C@H](Cc2c[nH]c3ccccc23)NC(=O)[C@@H](N)CCCNC(=N)N)CSSC[C@@H](C(=O)N[C@@H](Cc2c[nH]c3ccccc23)C(=O)N[C@@H](CC(=O)O)C(=O)N2CCC[C@H]2C(=O)NCC(=O)NCC(=O)NCC(=O)N[C@@H](CCCCNC(=O)c2ccc3c(c2)C(=O)OC32c3ccc(O)cc3Oc3cc(O)ccc32)C(N)=O)NC(=O)[C@H](CC2CCCCC2)NC(=O)[C@H]([C@@H](C)O)NC(=O)[C@H](Cc2c[nH]c3ccccc23)NC(=O)[C@H](CO)NC(=O)[C@H](CCC(=O)O)NC1=O [Seq057-CF5, RWQPC*PAESWT-Cha-C*WDPGGGK(CF5)-NH2] (H-RWQPCPAESWT[Cha]CWDPGGGK(5FAM)-NH2; disulfide 5-13)	0.03
C[C@@H](O)[C@@H]1NC(=O)[C@H](Cc2c[nH]c3ccccc23)NC(=O)[C@H](CO)NC(=O)[C@H](CCC(=O)O)NC(=O)[C@H](Cc2c[nH]c3ccccc23)NC(=O)[C@@H]2CCCN2C(=O)[C@@H](NC(=O)[C@@H]2CCCN2C(=O)[C@H](CCC(N)=O)NC(=O)[C@H](Cc2c[nH]c3ccccc23)NC(=O)C2CCCO2)CSSC[C@@H](C(=O)N[C@@H](Cc2c[nH]c3ccccc23)C(=O)N[C@@H](CC(=O)O)C(=O)N2CCC[C@H]2C(=O)NCC(=O)NCC(=O)NCC(=O)N[C@@H](CCCCNC(=O)c2ccc3c(c2)C(=O)OC32c3ccc(O)cc3Oc3cc(O)ccc32)C(N)=O)NC(=O)[C@H](Cc2ccccc2)NC1=O (stereo partly shown) [Seq028-CF5] (ξTetrahydrofuran2carbonyl-WQPCPWESWTFCWDPGGGK(5FAM)-NH2; disulfide 4-12)	1.21
C[C@@H]1NC(=O)[C@@H]2CCCN2C(=O)[C@@H](NC(=O)[C@@H]2CCCN2C(=O)[C@H](CCC(N)=O)NC(=O)[C@H](Cc2c[nH]c3ccccc23)NC(=O)CNC(=O)[C@@H](N)CCCNC(=N)N)CSSC[C@@H](C(=O)N[C@@H](Cc2c[nH]c3ccccc23)C(=O)N[C@@H](CC(=O)O)C(=O)N2CCC[C@H]2C(=O)NCC(=O)NCC(=O)NCC(=O)N[C@@H](CCCCNC(=O)c2ccc3c(c2)C(=O)OC32c3ccc(O)cc3Oc3cc(O)ccc32)C(N)=O)NC(=O)[C@H](CC2CCCCC2)NC(=O)[C@H]([C@@H](C)O)NC(=O)[C@H](Cc2c[nH]c3ccccc23)NC(=O)[C@H](CO)NC(=O)[C@H](CCC(=O)O)NC1=O [Seq054-CF5, RGWQPC*PAESWT-Cha-C*WDPGGGK(CF5)-NH2] (H-RGWQPCPAESWT[Cha]CWDPGGGK(5FAM)-NH2; disulfide 6-14)	0.05
C[C@@H](O)[C@@H]1NC(=O)[C@H](Cc2c[nH]c3ccccc23)NC(=O)[C@H](CO)NC(=O)[C@H](CCC(=O)O)NC(=O)[C@H](Cc2c[nH]c3ccccc23)NC(=O)[C@@H]2CCCN2C(=O)[C@@H](NC(=O)[C@@H]2CCCN2C(=O)[C@H](CCC(N)=O)NC(=O)[C@H](Cc2c[nH]c3ccccc23)NC(=O)[C@@H](N)CCCNC(=N)N)CSSC[C@@H](C(=O)N[C@@H](Cc2c[nH]c3ccccc23)C(=O)N[C@@H](CC(=O)O)C(=O)N2CCC[C@H]2C(=O)NCC(=O)NCC(=O)NCC(=O)N[C@@H](CCCCNC(=O)c2ccc3c(c2)C(=O)OC32c3ccc(O)cc3Oc3cc(O)ccc32)C(N)=O)NC(=O)[C@H](Cc2ccccc2)NC1=O [Seq023-CF5] (H-RWQPCPWESWTFCWDPGGGK(5FAM)-NH2; disulfide 5-13; N-terminus assumed)	0.11
CC(=O)N[C@H]1[C@@H](OC[C@H](NC(C)=O)C(=O)N[C@@H](Cc2c[nH]c3ccccc23)C(=O)N[C@@H](CCC(N)=O)C(=O)N2CCC[C@H]2C(=O)N[C@H]2CSSC[C@@H](C(=O)N[C@@H](Cc3c[nH]c4ccccc34)C(=O)N[C@@H](CC(=O)O)C(=O)N3CCC[C@H]3C(=O)NCC(=O)NCC(=O)NCC(=O)N[C@@H](CCCCNC(=O)c3ccc4c(c3)C(=O)OC43c4ccc(O)cc4Oc4cc(O)ccc43)C(N)=O)NC(=O)[C@H](Cc3ccccc3)NC(=O)[C@H]([C@@H](C)O)NC(=O)[C@H](Cc3c[nH]c4ccccc34)NC(=O)[C@H](CO)NC(=O)[C@H](CCC(=O)O)NC(=O)[C@H](Cc3c[nH]c4ccccc34)NC(=O)[C@@H]3CCCN3C2=O)O[C@H](CO)[C@H](O)[C@@H]1O [Seq027-CF5] (Ac-S(αGalNAc)WQPCPWESWTFCWDPGGGK(5FAM)-NH2; disulfide 5-13)	0.5
CC(=O)NCC(=O)N[C@@H](Cc1c[nH]c2ccccc12)C(=O)N[C@@H](CCC(N)=O)C(=O)N1CCC[C@H]1C(=O)N[C@H]1CSSC[C@@H](C(=O)N[C@@H](Cc2c[nH]c3ccccc23)C(=O)N[C@@H](CC(=O)O)C(=O)N2CCC[C@H]2C(=O)NCC(=O)NCC(=O)NCC(=O)N[C@@H](CCCCNC(=O)c2ccc3c(c2)C(=O)OC32c3ccc(O)cc3Oc3cc(O)ccc32)C(N)=O)NC(=O)[C@H](CC2CCCCC2)NC(=O)[C@H]([C@@H](C)O)NC(=O)[C@H](Cc2c[nH]c3ccccc23)NC(=O)[C@H](CO)NC(=O)[C@H](CCC(=O)O)NC(=O)[C@H](C)NC(=O)[C@@H]2CCCN2C1=O [Seq055-CF5, Ac-GWQPC*PAESWT-Cha-C*WDPGGGK(CF5)-NH2] (Ac-GWQPCPAESWT[Cha]CWDPGGGK(5FAM)-NH2; disulfide 5-13)	0.08
CC(=O)NCC(=O)NCC(=O)N[C@@H](CCCNC(=N)N)C(=O)NCC(=O)N[C@@H](Cc1c[nH]c2ccccc12)C(=O)N[C@@H](CCC(N)=O)C(=O)N1CCC[C@H]1C(=O)N[C@H]1CSSC[C@@H](C(=O)N[C@@H](Cc2c[nH]c3ccccc23)C(=O)N[C@@H](CC(=O)O)C(=O)N2CCC[C@H]2C(=O)NCC(=O)NCC(=O)NCC(=O)N[C@@H](CCCCNC(=O)c2ccc3c(c2)C(=O)OC32c3ccc(O)cc3Oc3cc(O)ccc32)C(N)=O)NC(=O)[C@H](Cc2ccccc2)NC(=O)[C@H]([C@@H](C)O)NC(=O)[C@H](Cc2c[nH]c3ccccc23)NC(=O)[C@H](CO)NC(=O)[C@H](CCC(=O)O)NC(=O)[C@H](Cc2c[nH]c3ccccc23)NC(=O)[C@@H]2CCCN2C1=O [Seq015-CF5] (Ac-GGRGWQPCPWESWTFCWDPGGGK(5FAM)-NH2; disulfide 8-16)	0.29
CC(=O)NCC(=O)N1CCC[C@H]1C(=O)N1CCC[C@H]1C(=O)NCC(=O)N[C@@H](Cc1c[nH]c2ccccc12)C(=O)N[C@@H](CCC(N)=O)C(=O)N1CCC[C@H]1C(=O)N[C@H]1CSSC[C@@H](C(=O)N[C@@H](Cc2c[nH]c3ccccc23)C(=O)N[C@@H](CC(=O)O)C(=O)N2CCC[C@H]2C(=O)NCC(=O)NCC(=O)NCC(=O)N[C@@H](CCCCNC(=O)c2ccc3c(c2)C(=O)OC32c3ccc(O)cc3Oc3cc(O)ccc32)C(N)=O)NC(=O)[C@H](Cc2ccccc2)NC(=O)[C@H]([C@@H](C)O)NC(=O)[C@H](Cc2c[nH]c3ccccc23)NC(=O)[C@H](CO)NC(=O)[C@H](CCC(=O)O)NC(=O)[C@H](Cc2c[nH]c3ccccc23)NC(=O)[C@@H]2CCCN2C1=O [Seq014-CF5] (Ac-GPPGWQPCPWESWTFCWDPGGGK(5FAM)-NH2; disulfide 8-16)	0.25
CC(=O)NCC(=O)N[C@@H](Cc1c[nH]c2ccccc12)C(=O)N[C@@H](CCC(N)=O)C(=O)N1CCC[C@H]1C(=O)N[C@H]1CSSC[C@@H](C(=O)N[C@@H](Cc2c[nH]c3ccccc23)C(=O)N[C@@H](CC(=O)O)C(=O)N2CCC[C@H]2C(=O)NCC(=O)NCC(=O)NCC(=O)N[C@@H](CCCCNC(=O)c2ccc3c(c2)C(=O)OC32c3ccc(O)cc3Oc3cc(O)ccc32)C(N)=O)NC(=O)[C@H](Cc2ccccc2)NC(=O)[C@H]([C@@H](C)O)NC(=O)[C@H](Cc2c[nH]c3ccccc23)NC(=O)[C@H](CO)NC(=O)[C@H](CCC(=O)O)NC(=O)[C@H](C)NC(=O)[C@@H]2CCCN2C1=O [Seq039-CF5] (Ac-GWQPCPAESWTFCWDPGGGK(5FAM)-NH2; disulfide 5-13)	0.24
